This is an account of results in article PMC13494812, “Towards the Targeted Protein Degradation of PRMT1” (Chemmedchem, 2024).

Data set [1] deals with T1, NLuc-CRBN fusion protein (Homo sapiens, UniProt Q96SW2).
T1 construct: host or cells: MCF-7
Put plainly: CRBN NanoBRET Target Engagement assay in live MCF-7 cells. The data set is classed as cell-based. To be noted: 0.5 µM tracer, 2 h, read-out: IC50, half-maximal inhibition of tracer binding to NLuc-CRBN.

Data set [2] can be described thus: PROTAC stability in cell culture media. The data set is classed as in vitro ADME. As to conditions: read-out: t1/2 in cell culture media (converted). The text has this: A SEM protecting group was employed on the glutarimide ring of CRBN ligand 6. Three CRBN‐recruiting PROTACs were synthesised by the O‐alkylation of PRMT1 ligand 4 with the corresponding linker 8 j–l to give 9 j–l which underwent a subsequent O‐alkylation with SEM‐protected CRBN ligand 12. The removal of the protecting groups was then attempted using acidic conditions. The N‐Boc and THP protecting groups on the PRMT1 ligand were removed however the SEM group on the CRBN ligand was converted to an N‐hydroxymethyl functional group. This group was removed under basic conditions to afford PROTACs J–L (Scheme 3 A). It is documented that the glutarimide ring and the phthalimide group of the CRBN ligand are susceptible to hydrolysis,[50, 51] and the stability of PROTAC L in cell culture media was investigated and found to be short (t1/2=0.9 h). Changing the functional group between the CRBN ligand and linker can affect the susceptibility of the ligand to hydrolysis.[52] PROTAC M was synthesised, which comprised a similar structure as PROTAC L, but with an amino group between the linker and CRBN ligand (Scheme 3 B).

Data set [3] has as its system MCF-7 cell line. Put plainly: Cytotoxicity seen in the MCF-7 degradation experiment. To be noted: MCF-7 cells, 10 μM, 24 h. The data set is classed as cell-based, human.
Data set [4] deals with KP-3 line. Put plainly: Cytotoxicity seen in the KP-3 degradation experiment. It counts as cell-based, human. To be noted: KP-3 cells, 10 μM, 24 h. The procedure: Figure S5. VHL-recruiting PROTACs in two PDAC-derived cell lines. Western blot of PROTAC A-F in two PDAC-derived cell lines at 10 µM. HPAF-II and KP-3 cells were treated with the indicated compounds at 10 µM for 24 h and then harvested for analysis by Western blot. PROTAC E and PROTAC F were cytotoxic in the KP-3 line.
(1 picture or pasted object on this page, not shown here)

Data set [5] deals with T2, CRBN (Homo sapiens, UniProt Q96SW2).
T2 construct: host or cells: MCF-7
Put plainly: CRBN binding of N-alkylated molecule 7 (Figure S6). The text has this:
To synthesise PROTACs that recruit the CRBN E3‐ligase, PRMT1 ligand 4 underwent a Mitsunobu reaction to produce 5 which was then used for the alkylation of CRBN ligand 6.

Data set [6] addresses T3, PRMT1 (Homo sapiens, UniProt Q99873).
T3 construct: endogenous in cells; host or cells: MCF-7
The data set is described as follows: ADMA and MMA levels by Western blot in MCF-7 cells (PRMT1 / Type I PRMT inhibition). It counts as cell-based. As to conditions: 10 μM, 24 h; for change in monomethylation of arginine (MMA): Western blot. An excerpt: The cells were allowed to adhere overnight.
manufacturer’s instructions.

Data set [7] concerns the target T3, PRMT1. Put plainly: PRMT1 degradation assay by Western blot in MCF-7 cells. As to conditions: 1 and 0.1 μM, 24 h. It counts as cell-based. The text has this: A sensitive and selective Western blot protocol was validated to investigate the effect of PROTAC treatment on the cellular levels of PRMT1 in the MCF‐7 cell line (Figure S4, ESI†). Derived from a metastatic breast adenocarcinoma, the MCF‐7 cell line has the hormone receptor status that characterises the most frequently diagnosed subtype of breast cancer: ER‐positive, PR‐positive, HER2‐negative.[43, 44] This breast cancer subtype, and consequently the MCF‐7 cell line, are a suitable model system to predict the clinical efficacy of PRMT1 PROTACs; PRMT1 upregulation correlates with a reduction in relapse‐free survival for patients with this breast cancer subtype[6, 45] and anti‐proliferative effects have been observed in the MCF‐7 cell line following pan‐Type I PRMT inhibition.[17, 20]
Figure 3 PRMT1 and PRMT6 degradation assays with VHL‐recruiting PROTACs. […] PROTACs E–F were cytotoxic and not analysed. […]
(§1) Western Blot Cells were counted using the Vi-CELL XR cell viability analyser, as per manufactures instructions, and the desired number of cells seeded in full media in individual 10 cm plates (Corning, #430167). […]
(§2) The pellet was resuspended in RIPA buffer containing protease and phosphatase inhibitor and incubated at 4 °C for 10 minutes with rotation. […] The supernatant was transferred and the protein concentration quantified by the Direct Detect Spectrometer as per manufacturer’s instructions. […]

For data set [8], the target named is T4, PRMT6 (Homo sapiens, UniProt Q96LA8).
T4 construct: endogenous in cells; host or cells: MCF-7
Put plainly: PRMT6 degradation assay by Western blot in MCF-7 cells. It counts as cell-based. As to conditions: 1 and 0.1 μM, 24 h. The procedure:
At 10 μM in the MCF‐7 cell line, PRMT1 degradation was not observed with any of the synthesised PROTACs (Figure 3A). PROTAC E and PROTAC F were cytotoxic and not analysed. […]. PRMT8 is expressed primarily in the brain and thus not investigated.[46]
Figure 3 PRMT1 and PRMT6 degradation assays with VHL‐recruiting PROTACs. A) PROTACs A–I at 10 μM. PROTACs E–F were cytotoxic and not analysed. MCF‐7 cells were treated with the indicated compound for 24 h and then harvested for analysis by Western blot. B) Same as A but PROTACs tested at 1 and 0.1 μM. Image representative of two independent experiments. Uncropped blots are shown in ESI†.
Figure 5 PRMT1 and PRMT6 degradation assays with CRBN‐recruiting PROTACs. A) PROTACs J–O at 10 μM. MCF‐7 cells were treated with the indicated compound for 24 h and then harvested for analysis by Western blot. B) Same as A but PROTAC N tested at 1 and 0.1 μM. […]
as §1, §2

Structures are written as SMILES. Bounds are passed on as bounds.

T3 sequence (Q99873 whole entry): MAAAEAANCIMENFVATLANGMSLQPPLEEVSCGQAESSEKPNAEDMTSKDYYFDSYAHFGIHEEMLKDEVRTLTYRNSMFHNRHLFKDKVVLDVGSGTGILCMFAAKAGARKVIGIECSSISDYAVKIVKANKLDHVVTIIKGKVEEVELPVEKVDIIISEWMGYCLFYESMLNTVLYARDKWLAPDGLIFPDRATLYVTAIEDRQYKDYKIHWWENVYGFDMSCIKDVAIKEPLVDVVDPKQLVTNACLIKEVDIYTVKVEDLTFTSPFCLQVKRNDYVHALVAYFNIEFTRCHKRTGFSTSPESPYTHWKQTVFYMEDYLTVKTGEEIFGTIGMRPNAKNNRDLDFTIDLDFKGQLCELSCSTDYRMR
T1 sequence (Q16531 whole entry, the tested form may be a part): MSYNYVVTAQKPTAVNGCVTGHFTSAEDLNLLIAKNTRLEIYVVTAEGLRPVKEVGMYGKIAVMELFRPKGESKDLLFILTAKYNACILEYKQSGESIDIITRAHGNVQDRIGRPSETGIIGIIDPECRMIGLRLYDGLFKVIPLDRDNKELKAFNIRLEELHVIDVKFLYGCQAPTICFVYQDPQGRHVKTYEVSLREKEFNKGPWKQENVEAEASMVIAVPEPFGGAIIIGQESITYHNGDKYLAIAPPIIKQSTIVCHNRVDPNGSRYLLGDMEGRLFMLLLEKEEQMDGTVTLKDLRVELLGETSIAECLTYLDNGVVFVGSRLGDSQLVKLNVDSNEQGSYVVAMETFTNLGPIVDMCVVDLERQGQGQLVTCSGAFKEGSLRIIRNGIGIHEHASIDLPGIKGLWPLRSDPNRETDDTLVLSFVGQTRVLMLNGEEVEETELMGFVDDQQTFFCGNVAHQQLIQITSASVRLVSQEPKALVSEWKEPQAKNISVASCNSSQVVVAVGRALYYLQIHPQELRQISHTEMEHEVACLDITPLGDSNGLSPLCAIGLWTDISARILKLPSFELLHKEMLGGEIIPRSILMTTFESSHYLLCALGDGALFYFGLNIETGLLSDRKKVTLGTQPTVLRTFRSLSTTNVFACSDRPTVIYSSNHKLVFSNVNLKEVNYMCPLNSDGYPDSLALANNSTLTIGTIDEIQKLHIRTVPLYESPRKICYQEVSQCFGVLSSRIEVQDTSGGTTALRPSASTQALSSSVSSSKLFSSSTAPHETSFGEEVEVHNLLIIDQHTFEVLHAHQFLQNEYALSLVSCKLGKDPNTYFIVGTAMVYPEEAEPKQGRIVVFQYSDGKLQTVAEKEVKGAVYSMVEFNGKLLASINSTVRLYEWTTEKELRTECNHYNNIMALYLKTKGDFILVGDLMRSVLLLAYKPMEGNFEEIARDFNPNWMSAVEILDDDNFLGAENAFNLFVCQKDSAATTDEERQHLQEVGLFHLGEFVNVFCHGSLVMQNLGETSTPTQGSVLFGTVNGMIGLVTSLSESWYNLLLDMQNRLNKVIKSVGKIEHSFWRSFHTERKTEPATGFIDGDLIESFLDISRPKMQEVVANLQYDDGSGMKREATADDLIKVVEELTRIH
T1 sequence (Q96SW2 whole entry, the tested form may be a part): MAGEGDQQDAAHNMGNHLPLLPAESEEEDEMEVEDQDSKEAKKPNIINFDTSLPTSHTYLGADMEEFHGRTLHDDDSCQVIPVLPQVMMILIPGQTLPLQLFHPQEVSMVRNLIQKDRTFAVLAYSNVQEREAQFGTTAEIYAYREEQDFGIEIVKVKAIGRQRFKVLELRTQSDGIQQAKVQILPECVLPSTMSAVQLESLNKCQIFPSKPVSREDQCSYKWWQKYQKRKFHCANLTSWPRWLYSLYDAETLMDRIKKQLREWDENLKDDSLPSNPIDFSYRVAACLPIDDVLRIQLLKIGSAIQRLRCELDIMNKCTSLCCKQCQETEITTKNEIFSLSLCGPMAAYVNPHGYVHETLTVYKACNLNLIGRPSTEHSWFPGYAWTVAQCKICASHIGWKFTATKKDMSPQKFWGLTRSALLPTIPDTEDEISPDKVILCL
T2 sequence (Q96SW2 whole entry): as the sequence (Q96SW2 whole entry, the tested form may be a part) above
T2 sequence (Q16531 whole entry, further chain): as the sequence (Q16531 whole entry, the tested form may be a part) above
T4 sequence (Q96LA8 whole entry): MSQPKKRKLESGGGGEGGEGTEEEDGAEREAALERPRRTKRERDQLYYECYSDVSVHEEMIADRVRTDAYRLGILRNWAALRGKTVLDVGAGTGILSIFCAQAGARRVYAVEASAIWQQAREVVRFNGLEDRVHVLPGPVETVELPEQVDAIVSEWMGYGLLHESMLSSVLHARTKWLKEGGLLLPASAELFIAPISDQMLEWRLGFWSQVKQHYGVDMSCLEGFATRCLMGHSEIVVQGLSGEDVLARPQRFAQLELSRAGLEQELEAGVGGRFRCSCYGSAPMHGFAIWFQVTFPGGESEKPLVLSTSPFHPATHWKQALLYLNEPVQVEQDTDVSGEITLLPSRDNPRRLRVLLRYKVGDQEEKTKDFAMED

For the molecule `CNCCN(C)Cc1c[nH]nc1-c1ccc(OCCOCCOCCOCCOCCOCCNc2cccc3c2C(=O)N(C2CCC(=O)NC2=O)C3=O)cc1` (stereo not drawn) [PROTAC M], the 50% inhibitory concentration (IC50) in data set [1] is 1900 nM. The half-life in data set [2] was 2.1 h.

Turning to `CNCCN(C)Cc1c[nH]nc1-c1ccc(OCCCCCCCCCCCC(=O)N[C@H](C(=O)N2C[C@H](O)C[C@H]2C(=O)NCc2ccc(-c3scnc3C)cc2)C(C)(C)C)cc1` [PROTAC E], the cytotoxicity result in data set [3] and in data set [4] was “cytotoxic” in each case.

For `CNCCN(C)Cc1c[nH]nc1-c1ccc(OCCOCCN2C(=O)CCC(N3C(=O)c4cccc(O)c4C3=O)C2=O)cc1` (stereo not drawn) [compound 7], the CRBN binding result in data set [5] is listed as “does not bind CRBN”.

Turning to `CNCCN(C)Cc1c[nH]nc1-c1ccc(OCCCCCCCCCC(=O)N[C@H](C(=O)N2C[C@H](O)C[C@H]2C(=O)NCc2ccc(-c3scnc3C)cc2)C(C)(C)C)cc1` [PROTAC D], the “change in monomethylation of arginine (MMA)” value in data set [6] is given as “significant increase”.

On to `CNCCN(C)Cc1c[nH]nc1-c1ccc(OCCCCCCNc2cccc3c2C(=O)N(C2CCC(=O)NC2=O)C3=O)cc1` (stereo not drawn) [PROTAC N], for which the “inhibition of PRMT1 activity” value in data set [6] (ADMA/MMA Western blot) is given as “inhibited PRMT1 activity”. Further, the IC50 in data set [1] is 200 nM. The PRMT1 degradation entry in data set [7] is given as “neither PRMT1 nor PRMT6 degradation was observed”. Besides, in data set [8], the PRMT6 degradation entry is recorded as “neither PRMT1 nor PRMT6 degradation was observed”.

For `CNCCN(C)Cc1c[nH]nc1-c1ccc(OCCCCCCCC(=O)N[C@H](C(=O)N2C[C@H](O)C[C@H]2C(=O)NCc2ccc(-c3scnc3C)cc2)C(C)(C)C)cc1` [PROTAC C], the “change in monomethylation of arginine (MMA)” value in data set [6] is on record as “significant increase”.

With `CNCCN(C)Cc1c[nH]nc1-c1ccc(OCCOCCOCCOCCOCCOCCOc2cccc3c2C(=O)N(C2CCC(=O)NC2=O)C3=O)cc1` (stereo not drawn) [PROTAC L], the IC50 in data set [1] is over 10000 nM. In data set [2], the half-life is 0.9 h.

Regarding `CNCCN(C)Cc1c[nH]nc1-c1ccc(OCCCCCCCCCCCCCCCC(=O)N[C@H](C(=O)N2C[C@H](O)C[C@H]2C(=O)NCc2ccc(-c3scnc3C)cc2)C(C)(C)C)cc1` [PROTAC F], the cytotoxicity entry in data set [3] and in data set [4] was “cytotoxic” throughout.
